Counter-ions that a name gives are not always drawn.

The nature of data set [1]: Test on Stability to Heating, Humidifying and Light. Type of data set: physicochemical. The note with it: for stability, overall: conditions of table 1; for moisture content of crystal form: initial, before test. The protocol:
The stability test was carried out following the procedures described below.
A 0.3 g-portion of each of the anhydrous form and respective hydrates of alfuzosin hydrochloride in crystal forms was placed in a glass bottle (sealed) and in a desiccator filled with a NaCl saturated solution, and preserved at 70° C. with a heater (Toyama Industry), after which the physicochemical stability of each compound was evaluated by X-ray powder diffraction and high performance liquid chromatography (HPLC).
Separately, 0.3 g of each of the anhydrous form and respective hydrates of alfuzosin hydrochloride in crystal forms was placed in a plastic dish which was then covered with a polyvinylidene chloride film, followed by irradiation with a chemical lamp (dominant wavelength: 365 nm) for 24 hours, for the evaluation of the light stability in the same manner as in the above.
HPLC apparatus (manufactured by Shimazu)
Detection with UV (at 254 nm); column (Nucleosil 5C18, 150 mm×4 mm, M, Nagel; flow rate 1.0 ml/m; room temperature; eluent, NaClO4 (in 1000 ml of water, 7 g, pH 3.5)- acetonitrile-THF (155:55:45): internal standard, p-chloroacetanilide (0.5 mg/ml).

A short description of data set [2]: Hygroscopicity Test (25 °C, various relative humidities, 10 days). The format is physicochemical. The protocol:
A 0.2 g-portion of a sample of each of the anhydrous form and respective hydrates of alfuzosin hydrochloride was placed in a desiccator containing a saturated solution of the salts listed hereunder (at 25° C.), and the relationship between the relative humidity at which the hydrated states of the respective compounds become. stable physically and the hygroscopicity of polymorphic hydrated forms of those compounds was investigated. The respective samples were brought to equilibrium by storage for 10 days under the respective conditions. For the setting up of the relative humidity (RH: %) was used a saturated solution of salts listed below:
RH 0%, dry P2 O5; RH 11%, LiCl; RH 22%, CH3 COOK; RH 33%, MgCl2; RH 43%, K2 CO3.2H2 O; RH 53%, Mg(NO3)2; RH 64%, CoCl2.6H2 O; RH 75%, NaCl; RH 84%, KCl; RH 93%, KNO3; RH 100%, water.

The subject of data set [3] is α1 -adrenergic receptor. The note with it: cited from earlier work.
The nature of data set [4]: Accelerated Test (100 °C and 120 °C, X-ray powder diffraction). Type of data set: physicochemical. The note with it: for crystal form change: 2 hours. Here is the method:
A 0.3 g-portion of each of the hydrates of alfuzosin hydrochloride was preserved in heaters (Sanyo) set to 100° C. and 120° C., for the confirmation of the stability of the respective hydrates. The physical stability of the respective samples was confirmed by X-ray powder diffraction.
In this test, the crystal state of the respective hydrates was monitored by X-ray powder diffraction every 30 minutes for 2 hours.

Data set [5] is described as follows: overall stability of crystal forms (tests 1-4). The format is physicochemical. As to conditions: normal preservation (25° C., RH 40-80%) and heating (50°-60° C.); Hydrochloride Dihydrate.
Data set [6] is described as follows: Drying Test (moisture content and crystal state under drying conditions). Type of data set: physicochemical. The note with it: for loss of water: 1 day. The protocol: The moisture content was measured with Karl Fischer Aquameter (Kyoto Electron Industry, MK-AII) for about 100 mg of a sample dissolved in methanol for moisture measurement. In turn, the dehydration behavior of the crystal water was measured by thermogravimetry and differential thermal analysis using TG/DTA200 thermogravimetric apparatus and SSC5030 Disc Station (Seiko). Concretely, approximately 5 mg of a sample was weighed into an open aluminum pan and analyzed at a rate of temperature increase of 10° C./m or 1° C./m. This analysis was carried out in a nitrogen atmosphere (flow rate: 100 ml/m).
Different from the hygroscopicity test mentioned above, the various hydrates of alfuzosin hydrochloride were kept under drying conditions for the monitoring of the change in moisture content.
In this connection, simultaneously in the present test, also the crystal state of dried samples after a three-days' drying was investigated for the dihydrate of the present invention by X-ray powder diffraction under drying conditions, for comparison with patterns of X-ray powder diffraction under normal conditions.

Data set [7] can be described thus: Accelerated Test (100 °C and 120 °C, X-ray powder diffraction). Type of data set: physicochemical. As to conditions: 45 min.
Setting [8] is: Chemical lamp (365 nm), 24 hours.
The mark [9] stands for this setting: after 70° C., 9 days at RH 75%, hydrochloride.
The mark [10] stands for this setting: after 70° C., 9 days, hydrochloride.
The mark [11] stands for this setting: after chemical lamp (365 nm), 24 hours, hydrochloride.

`COc1cc2nc(N(C)CCCNC(=O)C3CCCO3)nc(N)c2cc1OC` (centres unmarked) [Anhydrous, anhydrous alfuzosin hydrochloride]: the stability entry in data set [1] (70° C., 9 days) was “Stable”; in data set [1] (70° C., 9 days at RH 75%), “Stable”; in data set [1] (setting [8]), “Stable”. Also, the moisture content in data set [1] (setting [9]) is reported as 0.7%; in data set [1] (setting [10]), 1.33%; in data set [1] (setting [11]), 0.66%. The “stability, overall” value in data set [1] (listed as anhydrous form, hydrochloride) is on record as “extremely stable”. Also, in data set [1] (hydrochloride), the “moisture content of crystal form” value was 0.1%. For the same molecule, in data set [2] (25° C., 10 days), the “relative humidity at which stable” value is reported as at most 75%. This molecule displayed an equilibrium moisture content in data set [2] (RH over 75%, 25° C.) of 12%. Moreover, in data set [2] (RH over 75%, 25° C.), the “moisture content change at RH over 75%” value is reported as “increased significantly”. The “moisture content, equivalent moles of water” value in data set [2] (equilibrium, RH over 75%, 25° C.) is 3 moles of water. Besides, in data set [2] (relative humidity exceeding 75%), the “crystal form change on preservation” value was “the crystal structure of the anhydrous formchanges, thereby providing a trihydrate”.
As for `COc1cc2nc(N(C)CCCNC(=O)C3CCCO3)nc(N)c2cc1OC` (centres unmarked) [alfuzosin hydrochloride], in data set [3], the “α1 -adrenergic receptor antagonism” value was “antagonist of α1 -adrenergic receptor”.
For `COc1cc2nc(N(C)CCCNC(=O)C3CCCO3)nc(N)c2cc1OC` (centres unmarked) [Dihydrate (DI), Alfuzosin Hydrochloride Dihydrate], the time stable was at least 2 h in data set [4] (100° C.) and at least 0.75 h in data set [4] (120° C.). The “relative stability among crystal forms” value in data set [5] is listed as “the stablest crystal form”. The stability result in data set [1] (70° C., 9 days) was “Stable”; in data set [1] (70° C., 9 days at RH 75%), “Stable”; in data set [1] (setting [8]) it was “Stable”. Besides, the moisture content was 8.48% in data set [1] (after 70° C., 9 days at RH 75%, Hydrochloride Dihydrate); 8.41% in data set [1] (after 70° C., 9 days, Hydrochloride Dihydrate); 8.40% in data set [1] (after chemical lamp (365 nm), 24 hours, Hydrochloride Dihydrate). For the same molecule, the “stability, overall” value in data set [1] (Hydrochloride Dihydrate) is on record as “extremely stable”. Further, the “moisture content of crystal form” value in data set [1] (Hydrochloride Dihydrate) turned out to be 8.14%. Also, the dehydration process result in data set [6] (drying conditions) was “goes very slowly”. For the same molecule, the “change in moisture content” value in data set [6] (drying conditions, 3 days) was “no significant change in moisture content”. Further, in data set [6] (three-days' drying, X-ray powder diffraction), the “crystal form after drying” value is recorded as “retains its original crystal form, with some drop in degree of crystallization”.
With `COc1cc2nc(N(C)CCCNC(=O)C3CCCO3)nc(N)c2cc1OC` (centres unmarked) [Trihydrate (TRI), trihydrate of alfuzosin hydrochloride], the crystal form entry is reported as “TRI” in data set [4] (100° C., 30 min., hydrochloride); “TRI + DI” in data set [4] (100° C., 60 min., hydrochloride); “TRI + DI” in data set [4] (100° C., 90 min., hydrochloride); “TRI + DI” in data set [4] (100° C., 120 min., hydrochloride); “AN + DI + TRI” in data set [7] (hydrochloride). The crystal form change entry in data set [4] (100° C.) is “changed into the dihydrate by degrees”; in data set [7] (hydrochloride) it was “changed into a mixture of the anhydrous form, dihydrate and trihydrate”. For the same molecule, the TRI content was determined as 68% in data set [1] (70° C., 9 days) and 84% in data set [1] (70° C., 9 days at RH 75%). In addition, the DI content is reported as 16% in data set [1] (70° C., 9 days at RH 75%, hydrochloride) and 37% in data set [1] (70° C., 9 days, hydrochloride). In addition, the stability result in data set [1] (setting [8]) was “Stable”. Further, the moisture content in data set [1] (setting [9]) was found to be 12.03%; in data set [1] (setting [10]) it was 11.05%; in data set [1] (setting [11]) it was 12.87%. Further, the “stability, overall” value in data set [1] (hydrochloride) is given as “changed partially into the dihydrate, so they are considered unstable”. The “moisture content of crystal form” value in data set [1] (hydrochloride) turned out to be 12.75%. In addition, in data set [6] (drying conditions), the loss of water result is “lost most of the water in 1 day”.
For the molecule `COc1cc2nc(N(C)CCCNC(=O)C3CCCO3)nc(N)c2cc1OC` (centres unmarked) [Tetrahydrate (TETRA), alfuzosin hydrochloride tetrahydrate], in data set [4] (100° C., 30 min.), the crystal form result is on record as “TETRA + DI”. Also, the crystal form change result in data set [4] (100° C.) is recorded as “changed into the dihydrate by degrees”; in data set [7], “changed into the dihydrate”. Also, the DI content in data set [1] (70° C., 9 days) was determined as 26%; in data set [1] (70° C., 9 days at RH 75%) it was 98%. Also, the TETRA content is recorded as 74% in data set [1] (70° C., 9 days) and 2% in data set [1] (70° C., 9 days at RH 75%). The moisture content in data set [1] (after 70° C., 9 days) was 13.19%; in data set [1] (after 70° C., 9 days at RH 75%), 8.25%; in data set [1] (after chemical lamp (365 nm), 24 hours), 15.18%. Further, the “stability, overall” value in data set [1] was “changed partially into the dihydrate, so they are considered unstable”. The “moisture content of crystal form” value in data set [1] was determined as 14.93%. For the same molecule, in data set [6] (drying conditions), the loss of water result is reported as “lost most of the water in 1 day”.

The values are drawn from patent US5545738A, “Alfuzosin hydrochloride dihydrate” (Synthelabo, priority 1993, dated 1996).
